Several values for one entry are separate records, joined by “and”; a condition that tells them apart may be missing. Identical values can stand only once. *: point of attachment. Palmitoyl = CCCCCCCCCCCCCCCC(=O)*
Tests used:
PA nanostructures = assay: 1H DOSY NMR of OC free and with PA; assay type: binding
Protocol: Binding of organic cations (OCs) to PA. Initial screening of interactions of five different OCs with PA was performed using ^1H NMR spectroscopy in solution (FIG. 53). Here, ^1H signals lineshape from the ^1H NMR spectra of OCs were compared and analyzed against the corresponding ^1H signals from OC-PA samples. It is expected that ^1H signals will experience broadening if binding is occurring. In all cases we observed significant broadening except for tetramethylammonium (OC4), indicating its poor binding to PA nanostructures. ^1H DOSY NMR measurements. Spectra were measured by monitoring the change in intensity of the corresponding resonances as a function of the field gradient strength g (G/cm). A 2D sequence was used for diffusion measurement based on stimulated echo and LED which applies bipolar gradient pulses for diffusion (2 spoil gradients) together with water presaturation during relaxation delay (ledbpgppr2s Bruker sequence). ^1H DOSY data were first processed in Topspin (Fourier transformation, phasing, and baseline correction) and then the peak intensities of the corresponding resonances were extracted and fitted to the Stejskal-Tanner equation (Eq. 1) to give the value of diffusion coefficient D (m^2/s). Solution ^1H DOSY NMR data were fit to Eq. 1 using NMRTools.jl{, #28110}. ^1H HRMAS DOSY NMR data were fit using the Eq. 1 using Dynamics Center 2.6.3 software.
In the Eq. 1, I and I0 are the signal intensities in the presence and absence of gradient pulses, respectively; γ is the gyromagnetic ratio; g and δ are the gradient strength and their duration, respectively; σ=0.9, is the shape factor for the SMSQ gradient used in the experiment; Δ is the time separation between the edges of the gradient pulses.

[1] = Anomalous small angle X-ray scattering (ASAXS) of Rb+ around PA and OC-PA; assay type: physicochemical
Text: An anomalous small angle X-ray scattering (ASAXS) was used to deduce the spatial distribution of Rb^+ surrounding charged, twisted peptide amphiphile (PA) bilayer. ASAXS relies on the measurements of the subtle changes in the X-ray energy-dependent scattered intensity profiles from the combined counterion (here, Rb^+)-supramolecular assembly system. These changes arise due to strong dispersion corrections [f′(E), f″(E)] to the form factor (scattering/absorption power) of an atom or an ion when the X-ray energy E is close to the binding energy of a core-shell electron in the atom or the ion [(here, Rb^+ K-edge EK=15.2 keV.
Scattered intensity profiles were measured from 1 mM PA in solutions containing either 66 mM RbCl or 50 mM RbCl and 16 mM OC—Cl at 4 X-ray energies below the Rb^+ K edge (Table 8). The non-resonant
The block height h=1 nm is empirically selected for two reasons. First, no artifacts are introduced by this artificial construct in the simulated scattered intensities over the relevant ASAXS q range of 0.05-2 nm^−1 (FIG. 42). Second, this choice keeps the simulations relatively fast. The distribution of Rb^+ is assumed to follow the shape of each parallelepiped block (FIG. 43C), and consists of the condensed Rb^+ layer, which is associated with the 2 ionizable amino acid groups in the outer periphery of the PA bilayer, followed by 12 layers with exponentially decaying Rb^+ concentration. The total number of Rb^+ associated is equal to the parallelepiped charge, which is calculated based on estimates of the area/molecule/leaflet (At=0.5 nm^2) from molecular dynamics (MD) simulations and a fit parameter for the fraction of amino acids that are in the ionized state (a). Based on this model the orientationally averaged non-resonant intensity and the cross-term are calculated and compared to the data in FIG. 42. […]
The SAXS profiles in FIG. 42 were analyzed using the discretized model in FIG. 43. […] The best-fit was then selected based on manual calculations of the differences between the measured and simulated profiles. […]

CA1 pyramidal neurons = assay: Whole-cell current clamp recordings in organotypic hippocampal slice cultures on PA or ICN layers; assay type: cell-based, rat; set-up: Rheobase: unit not given beside the values
Protocol: To physiologically dissect the unique responses activated by Na^+-ICN vs. K^+-ICN, we explored the effect of ICNs on the stability of the hippocampal network. This well-established ex vivo model allows for the ability to reliably acquire electrophysiological data using organotypic hippocampal slice cultures from neonatal rats. A PA or ICN layer was prepared on top of Millicell® cell culture inserts, inserted hippocampal organotypic slices (including the entorhinal cortex), and measured multiple electrophysiological parameters from CA1 pyramidal neurons at 6, 10, and 14 DIV using whole-cell current clamp recordings (FIG. 5A). Given the known heterogeneity of the hippocampus, the CA1 pyramidal neuron excitability was measured in the dorsal area.
All experiments were carried out according to the European and institutional guidelines for the care and use of laboratory animals (Council Directive 86/609/EEC and French National Research Council) and approved by the local health authority (Préfecture des Bouches-du-Rhône, Marseille). Young wild type Wistar rats (P5-P10), of either sex, were used to prepare organotypic hippocampal slice cultures. Animals were deeply anesthetized with isoflurane (5%) and killed by decapitation. The brain was removed and both hippocampi were individually dissected. Hippocampal slices (300 μm) were cut using a Vibratome (Leica, VT1200S, Wetzlar, Germany) in a sucrose based cutting solution kept at 3-4° C. containing for 1L: ultrapure water (988.5 mL), sucrose (97 g), NaHCO3 (2.18 g), D-glucose (1.8 g), KCl (0.1 g), CaCl2 1M (1 mL), MgCl2 1M (10 mL). Kynurenic acid and penicillin/streptomycin were added to the solution just before cutting to control cellular electrical activity and avoid contamination during slices preparation respectively. Only dorsal hippocampal slices were collected and placed on 20 mm latex membranes (Millicell, Millipore) inserted into 35 mm Petri dishes containing 1 mL of culture medium and maintained in an incubator at 34° C., 95% 02-5% CO2. The culture medium contained 25 mL MEM, 1.25 mL HBSS, 12.5 mL horse serum, 0.5 mL penicillin/streptomycin, 0.8 mL glucose (1 M), 0.1 mL ascorbic acid (1 mg/mL), 0.4 mL Hepes (1 M), 0.5 mL B27, and 8.95 mL sterile H2O. At least 1 h before collecting the slices, PAs control, OC-PA KCl or OC-PA NaCl were painted on the external surface of the latex membranes by dragging a pipette (50 μL of annealed PAs control or OC-PAs) to extrude a thin coat of material and let organotypic slice cultures grow on it. The culture medium was changed regularly (every 3 days). Organotypic hippocampal slice cultures were used at 6, 10 and 14 DIV to perform electrophysiological recordings and at 10 DIV to perform immunostainings.
To perform electrophysiological recordings, the Millicell membrane containing the slices treated with PAs or OC-PAs was cut with a scalpel and transferred to a recording chamber perfused with oxygenated artificial cerebrospinal fluid (aCSF). This solution was maintained at 31° C. and contained: 125 mM NaCl, 26 mM NaHCO3, 3 mM CaCl2, 2.5 mM KCl, 2 mM MgCl2, 0.8 mM NaH2PO4, 10 mM D-glucose. It was finally equilibrated with 95% O2-5% CO2. Neurons were visualized under an upright microscope (Olympus BX50WI) in phase contrast by infrared video-microscopy using a 60× immersion objective. Whole-cell patch-clamp recordings were obtained from CA1 pyramidal neurons in dorsal hippocampal organotypic cultures at DIV6,10 and 14. Patch-clamp pipettes (7-9 MΩ) were filled with a solution containing (mM): K-gluconate 120, KCl 20, HEPES 10, EGTA 0, MgCl2 2, Na2ATP 2, and NaGTP 0.3 (pH 7.4). CA1 pyramidal neurons were recorded in whole cell current clamp with a MultiClamp 700B amplifier (Axon Instruments), digitalized at 20 kHz with Digidata 1440A (Molecular Devices), low pass filtered at 10 kHz, and acquired with Clampex software (Molecular Devices). For current-clamp recordings, pipette capacitance was compensated, and the bridge was balanced. […]

CCn1cc[n+](C)c1.[Cl-] [OC, 1-ethyl-3-methyl imidazolium chloride]
diffusion constant D (PA nanostructures; 160.0 mM EMIMCl in PBS pH 7.4, free organic cation): (1.179±0.002)·10^−9 m^2s^−1
diffusion constant D (PA nanostructures; 160.0 mM EMIMCl in PBS pH 7.4 in the presence of 10.0 mM PA): (2.900±0.023)·10^−10 m^2s^−1
diffusion constant Db (slow diffusing) (PA nanostructures; HRMAS DOSY, pelleted OC-PA): (3.326±0.004)·10^−12 m^2s^−1
diffusion constant Df (fast diffusing) (PA nanostructures; HRMAS DOSY, pelleted OC-PA): (1.630±0.001)·10^−10 m^2s^−1

C16-VVAAEE (Palmitoyl-VVAAEE-NH2) [peptide amphiphile monomer, C16=palmitoyl, assembles into one-dimensional nanostructures]
Rb^+ concentration near headgroups over bulk Rb^+ concentration ([1]; 1 mM PA in 66 mM RbCl): ~ 40 ×
degree of ionization a ([1]; 1 mM PA in 66 mM RbCl): 0.5
fraction charged (simulated intensities fitted to ASAXS) ([1]; Rb^+ counterions): 50%
rheobase, representative traces (CA1 pyramidal neurons; 6 DIV): 90 pA and 80 pA
rheobase, representative traces (CA1 pyramidal neurons; 10 DIV): 140 pA and 130 pA
rheobase, representative traces (CA1 pyramidal neurons; 14 DIV): 130 pA
Rheobase (CA1 pyramidal neurons; 6 days in vitro): 95.7 ± 5.6 and 86 ± 4.7
Spikes evoked at 240 pA (CA1 pyramidal neurons; 6 days in vitro): 16.4 ± 1.1 and 16.2 ± 0.9
Rheobase (CA1 pyramidal neurons; 10 days in vitro): 109.3 ± 4.8 and 121.8 ± 7.7
Spikes evoked at 240 pA (CA1 pyramidal neurons; 10 days in vitro): 13.2 ± 0.7 and 12.8 ± 0.9
Rheobase (CA1 pyramidal neurons; 14 days in vitro): 127 ± 4.4 and 131 ± 5.4
Spikes evoked at 240 pA (CA1 pyramidal neurons; 14 days in vitro): 11.1 ± 0.5 and 10.3 ± 0.9
